Earlier results on one molecule are cited in US20150306111A1 (priority 2012, published 2015).

Entries after “also recorded” stand apart in the source; their conditions may differ. Like-named read-outs stand apart in the source and are kept apart here.

For data set [1], the system named is asthma patients with seasonal allergic rhinitis and nasal congestion. Conditions: daily dose of 5 mg, 331 patients.

In the case of `Clc1ccc2c(c1)CCc1cccnc1C2=C1CCNCC1` [desloratadine], the Solubility in water result is reported as “practically insoluble in water; also recorded: low solubility in water”. Further, in data set [1], the “Effect on symptoms compared with placebo” value is “effective in reducing overall symptoms, the symptoms of asthma and the symptoms of nasal congestion”. In addition, the “Solubility in ethyl alcohol” value (ethyl alcohol) is listed as “very soluble in ethyl alcohol”. In addition, the “Solubility in propylene glycol” value (propylene glycol) is “moderately soluble in propylene glycol”. Besides, the Solubility in water result (listed as Desloratadine) is on record as “poorly soluble in water”.
